Here are results for 34 molecules from patent US20170202939A1, “PERSONALIZED CANCER VACCINES AND METHODS THEREFOR” (Washington University, priority 2014, published 2017).

No end group written: not given here.

For experiment [1], the target named is T1, HLA-A*02:01 (Homo sapiens, UniProt P04439, D140Y/D185E/D98H/E176V/E277Q/G131W/G231S/I119V/I121R/I166T/I218V/L300P/L318F/N151K/N90K/P208A/P217A/Q86G/Q94H/R138H/R169H/T345S).
T1 construct: purchased Pure Protein, L.L.C
In words: fluorescence polarization-based competitive peptide binding assay. The following applies: fluorescence polarization-based competitive peptide-binding assay; high affinity log(IC50; nM) <3.7; read-out: Experimental Affinity log(IC50) (converted). On the technique in general: In fluorescence polarisation assays a small probe gives low polarisation when free and higher when bound to something large.

For experiment [2], the system named is neoantigen-specific CD8+ T cells. In words: immune monitoring of vaccinated patients, HLA/peptide dextramer (tetramer) assay on cultured PBMC. Format: in vivo, human. The following applies: for Immunogenicity: AAS-directed CD8+ T cell response in vaccinated patient; for Spontaneous Immunity: pre-vaccine (naturally-occurring) CD8+ T cell response, immune monitoring assay. The procedure: Immunologic monitoring (Examples 1-10). Immunologic analysis to evaluate the kinetics and magnitude of T cell response to gp100 peptides was performed using PBMCs collected weekly (prior to vaccination and until week 21. Fresh PBMCs obtained by Ficoll-Hypaque gradient centrifugation were adjusted to 2×10^6 cells/ml in Stemline media (Sigma-Aldrich) containing 5% human AB-serum, and dispersed at 1 ml/well in 24-well plates. Cultures were set up for the gp100 peptides and the CMV pp65 peptide (positive peptide control). Cultures were pulsed with 40 μg/ml peptide and 50 U/ml IL-2 fed starting at 48 hours and every other day thereafter. On day 12 (peak of response; the inventors' unpublished observation), cultures were harvested, counted, and stained for flow cytometry analysis. To assess the antigen-specific T cell frequency, cells were stained with HLAA*0201/peptide tetramers (Beckman Coulter) for 30 minutes at room temperature, followed by addition of FITC-conjugated CD4, CD14, CD19, and CD56 and allophycocyanin-conjugated CD8 (Invitrogen) for 15 minutes at 4° C. Cells were washed and resuspended in FACS buffer, and 7AAD was added 5 minutes before analysis. Control CMV pp65-specific CD8+ T cells were detected in all CMV-seropositive patients before and after immunization. A negative HLA-A*0201/HIV gag peptide tetramer control was included. 25,000 events in the CD8+ gate were collected using a hierarchical gating strategy that included FSC/SSC and excluded 7AAD+ (dead) cells and CD4+CD14+CD19+CD56+ cells. Data were acquired and analyzed using Flow-Jo software.
To examine the kinetics and magnitude of T cell immunity to AAS peptides upon vaccination, peripheral blood mononuclear cells (PBMC) were collected prior to vaccination and weekly thereafter. The CD8+ T cell response to each peptide was analyzed using a HLA-A*02:01/AAS-peptide dextramer assay after a single round of in vitro stimulation. FIG. 30A illustrates kinetics of immune responses to neoantigens. Time is recorded in weeks (0 indicates pre-vaccination). Culture conditions and staining details are described infra. Antigen-specific numbers were calculated based on dextramer percentage and total live cell yields. Immunologic analysis to evaluate the kinetic and magnitude of T cell response to AAS-encoding and gp100-derived peptides was performed using PBMC collected weekly, starting before DC vaccination (Pre-vaccine in the figures) as described (Carreno, B. M., et al., J. Clin. Invest., 123, 3383-3394, 2013). Briefly, fresh PBMC obtained by Ficoll-Paque PLUS gradient centrifugation were cultured with 40 ug/mL peptide and IL-2 (50 U/mL). On day 10 (peak of response, unpublished data, labeled “Post-Vaccine” in the figures), neoantigen specific T cell frequencies were determined by staining with HLA-A*02:01/peptide dextramers (Immudex), followed by addition of FITC-CD4, -CD14, -CD19 (Invitrogen) and ALEXA® 488-CD56 (BD Pharmigen), APC-CD8 (Invitrogen). Cells were washed, resuspended in FACS buffer containing 7AAD. Twenty five thousand events in the CD8+ gate were collected using a hierarchical gating strategy that included FSC/SSC and excluded 7AAD-positive (dead cells) and CD4/14/19/56-positive cells. PBMC/CD8+ T cells derived from an unrelated HLA-A*02:01 patient were used as negative controls for assessing specificity of HLA-A*02:01/AAS-peptide dextramers (data not shown). Data were acquired and analyzed using Flow-Jo software. […] FIG. 30B illustrates the frequency of neoantigen specific T cells in CD8+ populations isolated directly from PBMC samples and after ex-vivo expansion using autologous DC and artificial antigen presenting cells. For dominant neoantigens TMEM48 F169L, SEC24A P469L and EXOC8 Q656, results are shown for samples obtained before vaccination (Pre-vaccine) and after 3 vaccine doses (Post-vaccine). For remaining neoantigens, results obtained with post-vaccine PBMC samples are shown. […]

In experiment [3] the target is T2, HLA-A*02:01 (human).
T2 construct: The form of the HLA molecule in the fluorescence polarization assay is not described; also called HLA-A2
In words: fluorescence polarization-based competitive peptide-binding assay.

Usually IC50 stands for the midpoint of a concentration-inhibition curve.

Consider LLSIIFFPA, for which the IC50 on HLA-A*02:01 [1] is 7940 nM. Moreover, in experiment [2], the Immunogenicity entry was “No” and the “Spontaneous Immunity” value is “No”.

QTIDNIVFL: the IC50 on HLA-A*02:01 [1] was 1550 nM. In experiment [2], the Immunogenicity result is listed as “No” and the “Spontaneous Immunity” value is “No”.

As for YISKCWDYA, on HLA-A*02:01 [1], the concentration for half-maximal inhibition (IC50) is 19100 nM. In experiment [2], the Immunogenicity entry was “No” and the “Spontaneous Immunity” value is on record as “No”.

With IIGAGPAEV, the half-maximal inhibitory concentration (IC50) at HLA-A*02:01 [1] was 6610 nM.

With HLYASLSRV, the half-inhibitory concentration (IC50) on HLA-A*02:01 [1] is 1910 nM.

In the case of KLANPLPYT, the IC50 on HLA-A*02:01 [1] is 5370 nM. For the same molecule, in experiment [2], the Immunogenicity result is recorded as “No” and the “Spontaneous Immunity” value is on record as “No”.

Take CLFPQTLAA: on HLA-A*02:01 [1], the IC50 is 3390 nM. Also, in experiment [2], the Immunogenicity result is given as “No” and the “Spontaneous Immunity” value is “No”.

As to “G280-9V: HLA-A*0201-restricted gp100 melanoma antigen-derived peptide, positive control for vaccination [reference compound]”, the “T cell response upon vaccination” value in experiment [2] (post-vaccine PBMC, dextramer assay) was “enhanced in patients MEL21 and MEL218 and revealed in patient MEL38”. Further, the “pre-existing (naturally occurring) T cell immunity” value in experiment [2] (pre-vaccine PBMC samples after in vitro stimulation) was “Two (MEL21 and MEL218) of the three patients had pre-existing immunity”.

Regarding IMAHCILDL, the concentration for half-maximal inhibition (IC50) at HLA-A*02:01 [1] was 10500 nM. In experiment [2], the Immunogenicity result is given as “No” and the “Spontaneous Immunity” value is on record as “No”.

As to VLLRALPVL, at HLA-A*02:01 [1], the IC50 is 1120 nM. In addition, in experiment [2], the Immunogenicity result is given as “No” and the “Spontaneous Immunity” value is listed as “No”.

As to FVSALCMFL, in experiment [2], the Immunogenicity entry is reported as “No” and the “Spontaneous Immunity” value was “No”.

Consider AVIDAYTEI, for which the IC50 at HLA-A*02:01 [1] is 25700 nM. Also, in experiment [2], the Immunogenicity entry is “No” and the “Spontaneous Immunity” value is given as “No”.

In the case of QLDKCSAFV, the concentration for half-maximal inhibition (IC50) at HLA-A*02:01 [1] is 2290 nM. In experiment [2], the Immunogenicity entry is listed as “No” and the “Spontaneous Immunity” value is given as “No”.

In the case of LLSIVPCTV, the half-maximal inhibitory concentration (IC50) on HLA-A*02:01 [1] is 1230 nM. For the same molecule, in experiment [2], the Immunogenicity entry is reported as “No” and the “Spontaneous Immunity” value is reported as “No”.

IILVAVPHV [EXOC8 Q656P AAS peptide IILVAVPHV (MEL218)]: in the experiment with HLA-A*02:01 [3], the “log(IC50, nM)” value was 3.06 log(IC50, nM).

B1: AKAP13 Q285K AAS peptide KLMNIQQKL (MEL38) (peptide)
peptide: KLMNIQQKL
notes: Synthetic nonamer carrying a tumor amino acid substitution
In the case of B1, the “log(IC50, nM)” value in the experiment with HLA-A*02:01 [3] was 3.07 log(IC50, nM).

B2: GPX8 L27P AAS peptide LLSIVPCTV (MEL21) (peptide)
peptide: LLSIVPCTV
notes: as for B1
On to B2, for which the “log(IC50, nM)” value with HLA-A*02:01 [3] is 3.09 log(IC50, nM).

B3: TMEM48 F169L AAS peptide CLNEYHLFL (MEL21) (peptide)
peptide: CLNEYHLFL
notes: as for B1
For B3, the “log(IC50, nM)” value with HLA-A*02:01 [3] was 3.09 log(IC50, nM).

B4: LARP7 N515D AAS peptide AVIDAYTEI (MEL218) (peptide)
peptide: AVIDAYTEI
notes: as for B1
Regarding B4, the “log(IC50, nM)” value in the experiment with HLA-A*02:01 [3] is 4.41 log(IC50, nM).

B5: SMOX K499N AAS peptide KLANPLPYT (MEL218) (peptide)
peptide: KLANPLPYT
notes: as for B1
For B5, the “log(IC50, nM)” value with HLA-A*02:01 [3] is 3.73 log(IC50, nM).

B6: HSD17B7 H108Y AAS peptide YISKCWDYA (MEL38) (peptide)
peptide: YISKCWDYA
notes: as for B1
Consider B6, for which the “log(IC50, nM)” value with HLA-A*02:01 [3] was 4.28 log(IC50, nM).

For CLFPQTLAA [PRKCDBP S153F AAS peptide CLFPQTLAA (MEL38)], the “log(IC50, nM)” value with HLA-A*02:01 [3] is 3.53 log(IC50, nM).

With HLYASLSRV [MRPS5 P59L AAS peptide HLYASLSRV, anchor-modified at P9 (MEL218)], the “log(IC50, nM)” value in the experiment with HLA-A*02:01 [3] was 3.28 log(IC50, nM).

Consider AMFWSVPTV [TKT R438W AAS peptide AMFWSVPTV, anchor-modified at P9 (MEL21)], for which, in the experiment with HLA-A*02:01 [3], the “log(IC50, nM)” value was 2.35 log(IC50, nM).

B7: MRPS17 P167L AAS peptide VLLRALPVL (MEL218) (peptide)
peptide: VLLRALPVL
notes: as for B1
With B7, in the experiment with HLA-A*02:01 [3], the “log(IC50, nM)” value is 3.05 log(IC50, nM).

B8: UTRN Q1058K AAS peptide QLDKCSAFV (MEL38) (peptide)
peptide: QLDKCSAFV
notes: as for B1
Consider B8, for which, in the experiment with HLA-A*02:01 [3], the “log(IC50, nM)” value is 3.36 log(IC50, nM).

B9: SEC24A P469L AAS peptide FLYNLLTRV (MEL38) (peptide)
peptide: FLYNLLTRV
notes: as for B1
B9: the “log(IC50, nM)” value with HLA-A*02:01 [3] is 2.68 log(IC50, nM).

B10: SRP9 I64M AAS peptide IMAHCILDL (MEL218) (peptide)
peptide: IMAHCILDL
notes: as for B1
Consider B10, for which, in the experiment with HLA-A*02:01 [3], the “log(IC50, nM)” value is 4.02 log(IC50, nM).

B11: OR8B3 T190I AAS peptide QLSCISTYV (MEL38) (peptide)
peptide: QLSCISTYV
notes: as for B1
As for B11, the “log(IC50, nM)” value with HLA-A*02:01 [3] was 3.1 log(IC50, nM).

B12: PABPC1 R520Q AAS peptide MLGEQLFPL (MEL218) (peptide)
peptide: MLGEQLFPL
notes: as for B1
Take B12: the “log(IC50, nM)” value with HLA-A*02:01 [3] is 2.35 log(IC50, nM).

Consider IIGAGPAEV [KDM1B G394E AAS peptide IIGAGPAEV, anchor-modified at P9 (MEL21)], for which the “log(IC50, nM)” value with HLA-A*02:01 [3] was 3.82 log(IC50, nM).

B13: PHKA2 S264F AAS peptide LLSIIFFPA (MEL21) (peptide)
peptide: LLSIIFFPA
notes: as for B1
Regarding B13, the “log(IC50, nM)” value in the experiment with HLA-A*02:01 [3] is 3.9 log(IC50, nM).

For FVSALCMFL [ARFGEF1 R782C AAS peptide FVSALCMFL (MEL38)], in the experiment with HLA-A*02:01 [3], the “log(IC50, nM)” value is 3.18 log(IC50, nM).

B14: ARFGEF1 F1637L AAS peptide QTIDNIVFL (MEL21) (peptide)
peptide: QTIDNIVFL
notes: as for B1
For the molecule B14, the “log(IC50, nM)” value in the experiment with HLA-A*02:01 [3] was 3.19 log(IC50, nM).
